Values after ≈ are worked out from the molar mass of the structure shown.
Key:
[1] = system: Moser human colon carcinoma; test: in vitro cytotoxicity, Moser human colon carcinoma; type: cell-based; conditions: 72 hours, neutral red
Procedure: (§1) Representative compounds of the present invention were also tested in in vitro cytotoxicity assays against four tumor cell lines. These cell lines were grown and maintained at 37° C. under a humidified atmosphere in a 5% CO2 incubator:
Moser human colon carcinoma in Eagle's MEM medium supplemented with FCS (10 %);
(§2) In experiments using the B16-F10 and Moser cell lines, exponentially growing cells were harvested, counted and suspended in the culture medium at a concentration of 1.5×10^4 and 3×10^4 cells/ml, respectively. Twenty-four hours after planting cell suspension (180 μl) into wells of a 96-well microtiter plate, test materials (20 μl) were added to the wells and the plates were incubated for 72 hours. Cytotoxicity against the tumor cells was colorimetrically determined at 540 nm after staining viable cells with neutral red solution. For the K562 and K562/ADM cell lines, 900 μl of the cell suspension (8×10^4 cells/ml) was incubated with test materials (100 μl) at 37° C., 5% CO2 for 48 hours in a 24-well tissue culture plate. Cytotoxicity was determined by counting the number of cells using a cell counter.

B16-F10 murine melanoma = test: in vitro cytotoxicity, B16-F10 murine melanoma; type: cell-based; conditions: Mus musculus; B16-F10, 72 hours, neutral red
Procedure: as §1
B16-F10 murine melanoma in Eagle's MEM medium (Nissui) containing kanamycin (60 μg/ml) and supplemented with heat-inactivated fetal calf serum (FCS, 10 %) and non-essential amino acids (0.6 %);
as §2

[2] = system: murine transplantable P388 leukemia; test: in vivo antitumor activity against P388 leukemia in mice (single ip dose, median survival time); parameters: species or system murine (female CDF1 mice); conditions: Q1D × 1, ip; for T/C % of MST: day 1
Procedure: Representative compounds of the present invention were evaluated for antitumor activity against murine transplantable P388 leukemia. Female CDF1 mice were inoculated intraperitoneally with approximately 10^6 P388 leukemic cells (day 0). […] The percent increase of median survival time (MST) of treated animals over that of untreated control animals was determined and reported as % T/C. Compounds showing % T/C values of 125 or greater are considered to have significant antitumor activity.

[3] = system: K562/ADM, an adriamycin-resistant subline; test: in vitro cytotoxicity, K562/ADM adriamycin-resistant subline; type: cell-based; conditions: Homo sapiens, 48 hours, cell counter
Procedure: as §1
(§3) K562 human myelogenous leukemia and K562/ADM, an adriamycin-resistant subline which was kindly provided by Dr. Takashi Tsuruo (University of Tokyo) in RPMI 1640 medium (Nissui) supplemented with FCS (10 %), penicillin (100 U/ml) and streptomycin (100 μg/ml).
as §2

[4] = system: K562 human myelogenous leukemia; test: in vitro cytotoxicity, K562 human myelogenous leukemia; type: cell-based; conditions: K562, 48 hours, cell counter
Procedure: as §1, §3, §2

SMILES | IC50 [1] | IC50 (B16-F10 murine melanoma) | T/C % of MST ([2]; 0.1 mg/kg) | T/C % of MST ([2]; 0.3 mg/kg) | T/C % of MST ([2]; 1 mg/kg) | T/C % of MST ([2]; 3 mg/kg) | T/C % of MST ([2]; 10 mg/kg) | T/C % of MST ([2]; 30 mg/kg) | T/C % of MST ([2]; 60 mg/kg) | Number of survivors/tested on day 50 ([2]; 120 mg/kg) | T/C % of MST ([2]; 120 mg/kg) | IC50 [3] | IC50 [4]
COc1cc([C@@H]2c3cc4c(cc3[C@@H](O[C@@H]3O[C@@H]5COC(OC)(OC)O[C@H]5[C@H](O)[C@H]3O)[C@H]3COC(=O)[C@H]23)OCO4)cc(OC)c1O [Compound 3, 4'-Demethyl-4-O-(4,6-O-Dimethoxymethylidene-β-D-Glucopyranosyl)Epipodophyllotoxin] | 3.3 µg/mL (≈ 5.2 µM) | 2.7 µg/mL (≈ 4.25 µM) | 125% | 135% | 135% | 140% | 170% | 190% | 170% | 1/4 | 210% |  | 
CCOC1(OCC)OC[C@H]2O[C@@H](O[C@@H]3c4cc5c(cc4[C@@H](c4cc(OC)c(O)c(OC)c4)[C@H]4C(=O)OC[C@@H]43)OCO5)[C@H](O)[C@@H](O)[C@@H]2O1 [Compound 4, 4'-Demethyl-4-O-(4,6-Diethoxymethylidene-β-D-Glucopvranosyl)Epipodophyllotoxin] | 3 µg/mL (≈ 4.53 µM) | 7.3 µg/mL (≈ 11 µM) | 100% | 109% | 127% | 132% | 136% | 145% | 150% |  | 182% | 32 µg/mL (≈ 48.3 µM) | 0.082 µg/mL (≈ 0.124 µM)
CCO[C@@H]1OC[C@H]2O[C@@H](O[C@@H]3c4cc5c(cc4[C@@H](c4cc(OC)c(O)c(OC)c4)[C@H]4C(=O)OC[C@@H]43)OCO5)[C@H](O)[C@@H](O)[C@@H]2O1 [Compound 2b, 4'-Demethyl-4-O-(4,6-O-α-Ethoxymethylidene-α-D-Glucopyranosyl)Epipodophyllotoxin] | 2.2 µg/mL (≈ 3.56 µM) | 0.54 µg/mL (≈ 0.873 µM) | 114% | 114% | 119% | 138% | 143% | 167% | 200% | 1/4 | 219% | > 50 µg/mL | 0.18 µg/mL (≈ 0.291 µM)
COc1cc([C@@H]2c3cc4c(cc3[C@@H](O[C@@H]3O[C@@H]5CO[C@@H](C)O[C@H]5[C@H](O)[C@H]3O)[C@H]3COC(=O)[C@H]23)OCO4)cc(OC)c1O [Etoposide, reference compound] |  |  | 120% | 130% | 136% | 143% | 163% | 185% | 212% |  | 288% |  | 
CCO[C@H]1OC[C@H]2O[C@@H](O[C@@H]3c4cc5c(cc4[C@@H](c4cc(OC)c(O)c(OC)c4)[C@H]4C(=O)OC[C@@H]43)OCO5)[C@H](O)[C@@H](O)[C@@H]2O1 [Compound 2a, 4'-Demethyl-4-O-(4,6-O-β-Ethoxymethylidene-β-D-Glucopyranosyl)Epipodophyllotoxin] | 1.7 µg/mL (≈ 2.75 µM) | 0.11 µg/mL (≈ 0.178 µM) | 114% | 119% | 124% | 133% | 148% | 171% | 181% |  | 214% | > 50 µg/mL | 0.065 µg/mL (≈ 0.105 µM)
COc1cc([C@@H]2c3cc4c(cc3[C@@H](O[C@@H]3O[C@@H]5CO[C@@H](OC)O[C@H]5[C@H](O)[C@H]3O)[C@H]3COC(=O)[C@H]23)OCO4)cc(OC)c1O [Compound 1b, 4'-Demethyl-4-O-(4,6-O-α-Methoxymethylidene-β-D-Glucopyranosyl)EpipodophYllotoxin] | 3.4 µg/mL (≈ 5.62 µM) | 0.27 µg/mL (≈ 0.447 µM) | 110% | 120% | 130% | 145% | 165% | 180% |  |  |  |  | 
COc1cc([C@@H]2c3cc4c(cc3[C@@H](O[C@@H]3O[C@@H]5CO[C@H](OC)O[C@H]5[C@H](O)[C@H]3O)[C@H]3COC(=O)[C@H]23)OCO4)cc(OC)c1O [Compound 1a, 4'-Demethyl-4-O-(4,6-O-β-Methoxymethylidene-β-D-Glucopyranosyl)Epipodophyllotoxin] |  | 0.094 µg/mL (≈ 0.155 µM) | 115% | 132% | 137% | 142% | 149% | 166% | 195% |  | 248% |  | 

— patent publication US5034380A, “Alkoxymethylidene epipodophyllotoxin glucosides” (Bristol-Myers Squibb Company, priority 1989, dated 1991)
